Laboratory results published in patent publication US8188101B2 (AstraZeneca AB, priority 2008, dated 2012).
pIC50: −log10 of the molar value.

tested on: Aβ42 release; assay: Aβ release in cells stably expressing APPswe, Meso Scale Discovery electrochemiluminescence assay; format: cell-based, Human; conditions: Homo sapiens, SH-SY5Y, HEK or SH-SY5Y cells stably expressing APPswe, 4-6 hours incubation with test compound
Protocol: The level of activity of the compounds on Aβ release was tested using the following method:
Compounds were diluted in 100% DMSO and stored at […] prior to use. Human Embryonic Kidney (HEK) or Human Neuroblastoma (SH-SY5Y) cell lines stably expressing APP with the Swedish mutation (APPswe) were cultured using Dulbecco's Modified Eagles medium (DMEM) supplied with […] glucose, Na-pyruvate and GlutaMAX with 10% FBS, 100 U/ml penicillin-streptomycin (PEST) respectively, 1× non-essential amino acids (NEAA), […] Hepes, 100 μg/ml Zeocine. Cells at about 80% confluence were washed with PBS, detached from culture flasks using 1× Trypsin/EDTA diluted in PBS, re-suspended in cell media and plated in 384-well poly-d-lysine coated cell culture plates at about 10000-15000 cells/well, in 25 μL cell media. Optionally, cryo-preserved cells (frozen and stored at −140° C. in 90% cell media and 10% DMSO) were thawed, washed and plated as above. Next the cells were incubated for 15-24 h at 37° C. and 5% CO2, after which cell medium was changed. Fresh medium containing test compound diluted ×200 from prepared compound plate was added to the cells before further incubation for 4-6 hours at 37° C. and 5% CO2. After incubation with test compound the amount of Aβ peptides, including Aβ42, Aβ40, Aβ39, Aβ38 and Aβ37, secreted to the cell medium was analyzed using the electrochemiluminescence assay technology from Meso Scale Discovery Technology, in combination with specific antibodies raised against the different Aβ peptides. Potential cytotoxic effects of the compounds were usually assayed by measuring the ATP content (ViaLight) from cell lysate.

Row | pIC50 | Compound
1 | 6.60 | CN1CCc2nc(Nc3ccc(-c4cnco4)cc3)nc(NCC3CCOCC3)c2C1 [Example 85, 6-Methyl-N2-(4-(oxazol-5-yl)phenyl)-N4-((tetrahydro-2H-pyran-4-yl)methyl)-5,6,7,8-tetrahydropyrido[4,3-d]pyrimidine-2,4-diamine]
2 | 6.60 | Cc1ccc(Cc2nc(Nc3ccc(-n4ccnc4C)cc3)nc3c2CN(C)CC3)cc1 [Example 50, 6-Methyl-N-(4-(2-methyl-1H-imidazol-1-yl)phenyl)-4-(4-methylbenzyl)-5,6,7,8-tetrahydropyrido[4,3-d]pyrimidin-2-amine]
3 | 5.80 | CN(C)CC(=O)N1CCc2nc(Nc3ccc(-c4cnco4)cc3)nc(N(CCO)c3ccccc3)c2C1 [Example 17, 2-(Dimethylamino)-1-(4-((2-hydroxyethyl)(phenyl)amino)-2-(4-(oxazol-5-yl)phenylamino)-7,8-dihydropyrido[4,3-d]pyrimidin-6(5H)-yl)ethanone]
4 | 5.00 | Cc1nccn1-c1ccc(Nc2nc3c(c(CC4CCOCC4)n2)CN(C)CC3)cc1 [Example 61, 6-Methyl-N-(4-(2-methyl-1H-imidazol-1-yl)phenyl)-4-((tetrahydro-2H-pyran-4-yl)methyl)-5,6,7,8-tetrahydropyrido[4,3-d]pyrimidin-2-amine]
5 | 6.00 | c1ccc(CNc2nc(Nc3ccc(-c4cnco4)cc3)nc3c2CCNC3)cc1 [Example 5, N4-Benzyl-N2-(4-(oxazol-5-yl)phenyl)-5,6,7,8-tetrahydropyrido[3,4-d]pyrimidine-2,4-diamine]
6 | 6.40 | Cc1nccn1-c1ccc(Nc2nc3c(c(NC4CCCCC4)n2)CN(C)CC3)cc1 [Example 69, N4-Cyclohexyl-6-methyl-N2-(4-(2-methyl-1H-imidazol-1-yl)phenyl)-5,6,7,8-tetrahydropyrido[4,3-d]pyrimidine-2,4-diamine]
7 | 7.60 | COc1cc(Nc2nc3c(c(Cc4ccccc4)n2)CN(CCO)CC3)ccc1-n1cnc(C)c1 [Example 75, 2-(4-Benzyl-2-(3-methoxy-4-(4-methyl-1H-imidazol-1-yl)phenylamino)-7,8-dihydropyrido[4,3-d]pyrimidin-6(5H)-yl)ethanol]
8 | 6.00 | Cc1nccn1-c1ccc(Nc2nc3c(c(Cc4ccc(F)cc4)n2)C[S+]([O-])CC3)cc1 (stereo not drawn) [Example 64, 4-(4-Fluorobenzyl)-N-[4-(2-methyl-1H-imidazol-1-yl)phenyl]-7,8-dihydro-5H-thiopyrano[4,3-d]pyrimidin-2-amine 6-oxide]
9 | 5.90 | c1ccc(CNc2nc(Nc3ccc(-c4cnco4)cc3)nc3c2CNCC3)cc1 [Example 6, N4-Benzyl-N2-(4-(oxazol-5-yl)phenyl)-5,6,7,8-tetrahydropyrido[4,3-d]pyrimidine-2,4-diamine]
10 | 5.80 | Cc1nccn1-c1ccc(Nc2nc3c(c(CC4CCOCC4)n2)CSCC3)cc1 [Example 46, N-(4-(2-Methyl-1H-imidazol-1-yl)phenyl)-4-((tetrahydro-2H-pyran-4-yl)methyl)-7,8-dihydro-5H-thiopyrano[4,3-d]pyrimidin-2-amine]
11 | 6.70 | Cc1ccc(Cc2nc(Nc3ccc(-n4ccnc4C)cc3)nc3c2CN(CCO)CC3)cc1 [Example 48, 2-(2-(4-(2-Methyl-1H-imidazol-1-yl)phenylamino)-4-(4-methylbenzyl)-7,8-dihydropyrido[4,3-d]pyrimidin-6(5H)-yl)ethanol]
12 | 5.50 | CC(=O)N1CCc2nc(Nc3ccc(-c4cnco4)cc3)nc(N(C)CC(O)c3ccccc3)c2C1 (stereo not drawn) [Example 34, 1-(4-((2-Hydroxy-2-phenylethyl)(methyl)amino)-2-(4-(oxazol-5-yl)phenylamino)-7,8-dihydropyrido[4,3-d]pyrimidin-6(5H)-yl)ethanone]
13 | 6.00 | c1ccc(Nc2nc(Nc3ccc(-c4cnco4)cc3)nc3c2CNCC3)cc1 [Example 3, N2-(4-(Oxazol-5-yl)phenyl)-N4-phenyl-5,6,7,8-tetrahydropyrido[4,3-d]pyrimidine-2,4-diamine]
14 | 6.00 | Cc1nccn1-c1ccc(Nc2nc3c(c(N(CCC#N)C4CC4)n2)CN(C)CC3)cc1 [Example 78, 3-(Cyclopropyl(6-methyl-2-(4-(2-methyl-1H-imidazol-1-yl)phenylamino)-5,6,7,8-tetrahydropyrido[4,3-d]pyrimidin-4-yl)amino)propanenitrile]
15 | 6.90 | COc1cc(Nc2nc3c(c(CCC4CCCO4)n2)COCC3)ccc1-n1cnc(C)c1 (stereo not drawn) [Example 102, N-(3-Methoxy-4-(4-methyl-1H-imidazol-1-yl)phenyl)-4-(2-(tetrahydrofuran-2-yl)ethyl)-7,8-dihydro-5H-pyrano[4,3-d]pyrimidin-2-amine]
16 | 7.60 | COc1cc(Nc2nc3c(c(Cc4ccccc4)n2)CN(C(C)=O)CC3)ccc1-n1cnc(C)c1 [Example 107, 1-(4-Benzyl-2-(3-methoxy-4-(4-methyl-1H-imidazol-1-yl)phenylamino)-7,8-dihydropyrido[4,3-d]pyrimidin-6(5H)-yl)ethanone]
17 | 6.20 | Cc1nccn1-c1ccc(N(C)c2nc3c(c(N4c5ccccc5C[C@H]4CO)n2)CN(C)CC3)cc1 [Example 72]
18 | 6.20 | O=C(C1CC1)N1CCc2nc(Nc3ccc(-c4cnco4)cc3)nc(N(CCO)c3ccccc3)c2C1 [Example 16, Cyclopropyl(4-((2-hydroxyethyl)(phenyl)amino)-2-(4-(oxazol-5-yl)phenylamino)-7,8-dihydropyrido[4,3-d]pyrimidin-6(5H)-yl)methanone]
19 | 6.50 | Cc1nccn1-c1ccc(Nc2nc3c(c(CC4CCCC4)n2)CN(C)CC3)cc1 [Example 55, 4-(Cyclopentylmethyl)-6-methyl-N-(4-(2-methyl-1H-imidazol-1-yl)phenyl)-5,6,7,8-tetrahydropyrido[4,3-d]pyrimidin-2-amine]
20 | 6.90 | CC(=O)N1CCc2nc(Nc3ccc(-c4cnco4)cc3)nc(NC3CCCCC3)c2C1 [Example 26, 1-(4-(Cyclohexylamino)-2-(4-(oxazol-5-yl)phenylamino)-7,8-dihydropyrido[4,3-d]pyrimidin-6(5H)-yl)ethanone]
21 | 5.80 | Cc1nccn1-c1ccc(Nc2nc3c(c(N4c5ccccc5C[C@H]4CO)n2)CN(C)CC3)cc1 [Example 9, (S)-(1-(6-methyl-2-(4-(2-methyl-1H-imidazol-1-yl)phenylamino)-5,6,7,8-tetrahydropyrido[4,3-d]pyrimidin-4-yl)indolin-2-yl)methanol]
22 | 5.40 | c1ccc(COc2nc(Nc3ccc(-c4cnco4)cc3)nc3c2CNCC3)cc1 [Example 12, 4-(Benzyloxy)-N-(4-(oxazol-5-yl)phenyl)-5,6,7,8-tetrahydropyrido[4,3-d]pyrimidin-2-amine]
23 | 6.10 | Cc1nccn1-c1ccc(Nc2nc3c(c(NC[C@@H]4CCCO4)n2)CN(C)CC3)cc1 [Example 73, (S)-6-Methyl-N2-(4-(2-methyl-1H-imidazol-1-yl)phenyl)-N4-((tetrahydrofuran-2-yl)methyl)-5,6,7,8-tetrahydropyrido[4,3-d]pyrimidine-2,4-diamine]
24 | 6.60 | CCN(CC1CCCO1)c1nc(Nc2ccc(-c3cnco3)cc2)nc2c1CN(CCO)CC2 (stereo not drawn) [Example 81, 2-(4-(Ethyl((tetrahydrofuran-2-yl)methyl)amino)-2-(4-(oxazol-5-yl)phenylamino)-7,8-dihydropyrido[4,3-d]pyrimidin-6(5H)-yl)ethanol]
